Experiments:
A2A receptor = target: T1, A2A receptor (Homo sapiens, UniProt P29274); experiment: Radioligand receptor binding assay, A2A receptor; conditions: cell membranes overexpressing A2A receptor, read-out: Potency Ki A2A
T1 construct: purchased
Method: (§1) Using conventional receptor binding assay techniques, Compounds 1-24 were assayed to determine binding activity at the A2A, A1, and A3 receptors with the results shown in Table 7.
(§2) Receptor binding affinity of Compounds 1-24 was measured using radioligand binding assays using commercially obtained cell membranes prepared from cell lines overexpressing the A2A, A1, or A3 receptors. Briefly, cell membrane preparations from cells expressing the specific receptor were mixed with the appropriate [^3H]-labeled tracer for the specific receptor and the test compound or a known inhibitor of receptor-ligand binding. Following 60 min incubation at room temperature to allow receptor-ligand complex formation, the complexes were collected by filtration, washed with 50 mM Tris HCl (pH 7.5) to remove radioligand that was not receptor-bound, and the remaining radioactivity determined by liquid scintillation counting. Specific radioligand binding was calculated for each test compound concentration and IC50 values were determined by non-linear, regression analysis. Inhibition constants (Ki) were calculated using the equation of Cheng and Prusoff using the observed IC50 of the tested compound, the concentration of radioligand employed in the assay and the experimentally determined values for the Kd of the ligand.

[1] = Brain-to-plasma ratio (B/P) after administration; format: in vivo, Sprague-Dawley rats; conditions: Sprague-Dawley, rat, oral, 2.5 mg/kg; Table 6; brain-to-plasma ratio at 1 h
Source text: A similar unexpected result was obtained when the phenyl ring present on Compound 1 was replaced with a halogen substituted pyridine. The halogen was previously introduced on the phenyl ring with the aim of blocking a possible metabolic soft-spot, with similar results observed as for Compound 1 in terms of exposure, clearance and bioavailability (Compound 10 and Compound 15). The substituted pyridine ring was designed to modulate the lipophilicity and polar surface area, as well as to address metabolic soft-spot concerns. Clearance and bioavailability parameters remain similar between substituted phenyl and pyridine (Compound 4 and Compound 14) analogs, which span a range in cLogP of 2.7-3.2. It was therefore surprising the significant improvement in exposure and clearance observed for the more lipophilic Compound 19. […] A compound is commonly deemed to be a brain penetrant if the brain-to-blood/plasma concentration ratio (B/P) is greater than 0.04 using methods as known in the art (Schaffer, Annual Reports in Medicinal Chemistry, 45:55-70, 2010).
Plasma pharmacokinetic parameters were determined following oral (PO) administration of further compounds essentially as described in Example 28 with the results shown in Table 6.

A1 receptor = target: T2, A1 receptor (Homo sapiens, UniProt P30542); experiment: Radioligand receptor binding assay, A1 receptor; conditions: cell membranes overexpressing A1 receptor, read-out: Potency Ki A1
T2 construct: purchased
T2 sequence (P30542 1-326): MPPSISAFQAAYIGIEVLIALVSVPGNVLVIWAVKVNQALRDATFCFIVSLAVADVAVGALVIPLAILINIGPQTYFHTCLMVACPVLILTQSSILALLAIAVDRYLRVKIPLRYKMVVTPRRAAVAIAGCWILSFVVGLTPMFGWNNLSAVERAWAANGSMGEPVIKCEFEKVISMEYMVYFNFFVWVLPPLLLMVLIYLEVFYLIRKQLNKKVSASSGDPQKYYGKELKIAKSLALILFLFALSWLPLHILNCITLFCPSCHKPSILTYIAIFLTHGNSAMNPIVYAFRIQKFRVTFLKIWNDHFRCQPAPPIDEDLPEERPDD
Method: as §1, §2

[2] = Plasma pharmacokinetic parameters following intravenous (IV) or oral (PO) administration in rats; format: in vivo, Sprague-Dawley rats; conditions: male, Sprague-Dawley, rat, plasma, Table 6; for AUC / bioavailability: 2.5 mg/kg, oral (PO) administration essentially as described in Example 28; for clearance: intravenous, 0.5 mg/kg, essentially as described in Example 28; for bioavailability: po
Method: (§3) Adult male Sprague-Dawley rats (230-250 g) (Charles River Labs, Hollister, CA) were utilized for the study. There were 2 rats/group. All animals were food fasted overnight with water provided ad libitum at all times. Compounds 1, 4, 14 and 19 were synthesized as described in Examples 2, 17, 7, and 12, respectively, and formulated in injectable water.
(§4) The morning of each dosing, individual doses were calculated based on current body weights on the day of dosing. The jugular vein cannula (JVC) and the carotid artery cannula (CAC) were externalized, flushed with HEP/saline (10 IU/mL HEP/mL saline), plugged, and labeled to identify the jugular vein and the carotid artery. The IV group animals were dosed at 0.5 mg/kg of Compound 1, 4, 14 or 19, respectively, intravenously via the jugular vein, while the PO dose was administered 2.5 mg/kg of Compound 1, 4, 14 or 19, respectively, orally via gavage. For the IV group, immediately following the dose of test article, the dead volume of the catheter was flushed with 0.9% saline to ensure the animals received the full dose.
Approximately 0.2 mL of blood was collected per time point from JVC. Blood samples were collected at 2 (IV group only), 5, 15, 30, 60, 120, 240, 360, 420 (Compound 19 only), 480, 720 (Compound 19 only), and 1440 minutes via the CAC and transferred immediately into K2EDTA coated tubes pre-loaded 2 μl with quenching cocktail and placed on wet ice. The samples were centrifuged within 30 min after collection at 10,000 RPM for 5 minutes and the resulting plasma was separated. Plasma was transferred into microfuge tubes and placed on dry ice immediately. The plasma samples were stored at approximately −70° C. until bioanalysis.
Plasma samples were extracted by protein precipitation with acetonitrile containing 0.1% formic acid and doxepin for Compound 1 (available from Sigma-Aldrich) or SCH58261 for Compounds 4, 14 and 19 (available from Sigma-Aldrich) as an internal standard. Following vortex and centrifugation, supernatant was diluted 3-fold with water containing 0.1% formic acid and analyzed by LC-MS/MS.
Pharmacokinetic parameters (PK) were determined by non-compartmental analysis (NCA) using Phoenix 64 WinNonlin (version 8) and Dotmatics (version 5.0). Nominal doses and time points were used for the analysis.
The following PK parameters were estimated using plasma concentration-time profile of each animal with the results presented in Table 3: • AUCinf Area under the concentration-time from zero to time infinity • AUClast Area under the concentration-time from zero to time of last concentration value • F Bioavailability • CL Total body clearance • Cmax Maximum (peak) concentration • MRTlast Mean residence time to last observable concentration • Tmax Time to reach maximum or peak concentration following administration • Vss Volume of distribution at steady state
as §3, with “Compound 1 was” for “Compounds 1, 4, 14 and 19 were”, “Example 2” for “Examples 2, 17, 7, and 12, respectively,”
as §4, with “1” for “1, 4, 14 or 19, respectively,”
Approximately 0.2 mL of blood was collected per time point from JVC. […]

T1 sequence (P29274 whole entry): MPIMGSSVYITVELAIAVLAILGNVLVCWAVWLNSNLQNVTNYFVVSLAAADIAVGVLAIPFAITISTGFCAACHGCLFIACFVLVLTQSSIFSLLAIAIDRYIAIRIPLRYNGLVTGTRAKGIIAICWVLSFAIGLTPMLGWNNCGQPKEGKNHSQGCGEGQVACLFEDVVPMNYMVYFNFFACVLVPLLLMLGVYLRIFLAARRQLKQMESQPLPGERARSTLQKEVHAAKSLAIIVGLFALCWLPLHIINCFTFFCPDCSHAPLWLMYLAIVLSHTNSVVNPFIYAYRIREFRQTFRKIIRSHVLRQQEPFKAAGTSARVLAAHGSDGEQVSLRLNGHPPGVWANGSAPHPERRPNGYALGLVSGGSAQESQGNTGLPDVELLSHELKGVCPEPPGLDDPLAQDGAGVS

SMILES	Ki (A2A receptor) [nM]	Kp at 1 h [1]	Ki (A1 receptor) [nM]	AUC [2] [ng·h/mL]	clearance [2] [mL/min/kg]	bioavailability [2] [%]
COCCOc1ccc(N2CCN(CCN(C)c3nc(N)n4nc(-c5ncco5)nc4n3)CC2)cc1 [Compound 2, N^5-(2-{4-[4-(2-methoxyethoxy)phenyl]piperazin-1-yl}ethyl)-N^5-methyl-2-(1,3-oxazol-2-yl)[1,2,4]triazolo[1,5-a][1,3,5]triazine-5,7-diamine]	7	0.04	13000	320	54	43
COCCOc1cnc(N2CCN(CCN(C)c3cc4nc(-c5ncco5)nn4c(N)n3)CC2)nc1 [Compound 3, N^7-(2-{4-[5-(2-methoxyethoxy)pyrimidin-2-yl]piperazin-1-yl}ethyl)-N^7-methyl-2-(1,3-oxazol-2-yl)[1,2,4]triazolo[1,5-c]pyrimidine-5,7-diamine]	10	0.04	20100	376	47	44
CN(CCN1CCN(c2ccc(OCCOC(F)(F)F)cc2)CC1)c1cc2nc(-c3ncco3)nn2c(N)n1 [Compound 5, N^7-methyl-2-(1,3-oxazol-2-yl)-N^7-[2-(4-{4-[2-(trifluoromethoxy)ethoxy]phenyl}piperazin-1-yl)ethyl][1,2,4]triazolo[1,5-c]pyrimidine-5,7-diamine]	7	0.1	> 10000	971	21	48
[2H]C([2H])([2H])N(CCN1CCN(c2ccc(OCCOC)cc2)CC1)c1cc2nc(-c3ncco3)nn2c(N)n1 [Compound 6, N^7-(2-{4-[4-(2-methoxyethoxy)phenyl]piperazin-1-yl}ethyl)-N^7-(^2H3)methyl-2-(1,3-oxazol-2-yl)[1,2,4]triazolo[1,5-c]pyrimidine-5,7-diamine]	12	0.05	> 4000	852	34	64
[2H]C([2H])([2H])OCCOc1ccc(N2CCN(CCN(C)c3cc4nc(-c5ncco5)nn4c(N)n3)CC2)cc1 [Compound 7, N^7-methyl-N^7-{2-[4-(4-{2-[(^2H3)methyloxy]ethoxy}phenyl)piperazin-1-yl]ethyl}-2-(1,3-oxazol-2-yl)[1,2,4]triazolo[1,5-c]pyrimidine-5,7-diamine]	13	0.07	> 4000	1020	24	60
[2H]C([2H])(N1CCN(c2ccc(OCCOC)cc2)CC1)C([2H])([2H])N(C)c1cc2nc(-c3ncco3)nn2c(N)n1 [Compound 9, N^7-[2-{4-[4-(2-methoxyethoxy)phenyl]piperazin-1-yl}(^2H4)ethyl]-N^7-methyl-2-(1,3-oxazol-2-yl)[1,2,4]triazolo[1,5-c]pyrimidine-5,7-diamine]	6	0.04	> 4000	1170	23	65
[2H]C([2H])([2H])OCCOc1ccc(N2CCN(CCN(C)c3cc4nc(-c5ncco5)nn4c(N)n3)CC2)c(F)c1 [Compound 10, N^7-{2-[4-(2-fluoro-4-{2-[(^2H3)methyloxy]ethoxy}phenyl)piperazin-1-yl]ethyl}-N^7-methyl-2-(1,3-oxazol-2-yl)[1,2,4]triazolo[1,5-c]pyrimidine-5,7-diamine]	5.5	0.09	> 10000	819	30	57

These reach a lower Ki (A2A receptor). Values come first.

Ki (A2A receptor) [nM]	Kp at 1 h [1]	Ki (A1 receptor) [nM]	AUC [2] [ng·h/mL]	clearance [2] [mL/min/kg]	bioavailability [2] [%]	SMILES
4	0.04	> 4000	1200	22	63	[2H]C([2H])([2H])OCCOc1ccc(N2CCN(CCN(c3cc4nc(-c5ncco5)nn4c(N)n3)C([2H])([2H])[2H])CC2)cc1 [Compound 8, N^7-(^2H3)methyl-N^7-{2-[4-(4-{2-[(^2H3)methyloxy]ethoxy}phenyl)piperazin-1-yl]ethyl}-2-(1,3-oxazol-2-yl)[1,2,4]triazolo[1,5-c]pyrimidine-5,7-diamine]
4	0.03	> 100000	1000	23	56	[2H]C([2H])([2H])OC([2H])([2H])C([2H])([2H])Oc1ccc(N2CCN(CCN(C)c3cc4nc(-c5ncco5)nn4c(N)n3)CC2)cc1 [Compound 12, N^7-methyl-N^7-(2-{4-[4-({2-[(^2H3)methyloxy](^2H4)ethyl}oxy)phenyl]piperazin-1-yl}ethyl)-2-(1,3-oxazol-2-yl)[1,2,4]triazolo[1,5-c]pyrimidine-5,7-diamine]
2.3		16900	708	30	63	[2H]C([2H])([2H])OCCOc1cnc(N2CCN(CCN(C)c3cc4nc(-c5ncco5)nn4c(N)n3)CC2)c(F)c1 [Compound 11, N^7-{2-[4-(3-fluoro-5-{2-[(^2H3)methyloxy]ethoxy}pyridin-2-yl)piperazin-1-yl]ethyl}-N^7-methyl-2-(1,3-oxazol-2-yl)[1,2,4]triazolo[1,5-c]pyrimidine-5,7-diamine]

— patent US12325708B2, “Adenosine 2 receptor antagonists” (Nektar Therapeutics, priority 2019, dated 2025)
